Experimental data as given in US10869846B2, “N-acetylcysteine amide (NAC amide) in the treatment of diseases and conditions associated with oxidative stress” (SENTIENT LIFESCIENCES, INC., priority 2005, dated 2020).

Test system: Sprague-Dawley rats
Assay: Survival after whole body single-dose X-ray irradiation (9 Gy)
Assay type: in vivo, rat
Conditions: for survival rate versus XRT alone: pre-treated before XRT
Excerpt: This Example describes a study observing the survival of rats receiving whole body, single-dose irradiation by X-rays (XRT) in the presence or absence of NAC or NAC amide (TOVA). In this experiment, thirty-nine female Sprague-Dawley rats ranging from about 150-200 g were subjected to total body, single-dose X-ray irradiation (9 Gy, 16 Mev). The same groups were designated to receive either NAC or TOVA. For the pre-treatment groups (n=6 in each group), the first treatment of NAC or TOVA was administered 30 minutes to 1 hour before irradiation. For the post-pretreatment groups (n=6 in each group), the first treatment of NAC or TOVA was administered 30 minutes to 1 hour after the irradiation. For groups receiving NAC or TOVA, the same amount (500 mg/kg NAC or TOVA daily) was administered for 4 or 5 consecutive days.
Group 1 was a control group (n=3), where rats received the same amount of saline solution daily for 5 consecutive days without XRT. Group 2 rats received NAC only (n=3) at an amount of 500 mg/kg body weight NAC daily for 5 consecutive days without XRT. Group 3 rats received TOVA only (n=3) at an amount of 500 mg/kg body weight TOVA daily for 5 consecutive days without XRT. Group 4 rats received radiation (XRT) only (n=6) and received the same amount of saline solution daily for 5 consecutive days after single dose total-body XRT irradiation.
Group 5 rats received one treatment of NAC at 500 mg/kg body weight before XRT (XRT+NAC pre-treated), which was then followed by 500 mg/kg body weight NAC daily for 4 consecutive days after XRT. Group 6 rats received XRT, followed by daily doses of NAC at 500 mg/kg body weight for 5 consecutive days after XRT (XRT+NAC post-treated). Group 7 rats […] at 500 mg/kg body weight before XRT (XRT+TOVA pre-treated), which was then followed by 500 mg/kg body weight TOVA daily for 4 consecutive days after XRT. Group 8 rats received XRT, followed by daily doses of TOVA at 500 mg/kg body weight for 5 consecutive days after XRT (XRT+TOVA post-treated). All rats were then given a normal diet post-treatment.
The rats were observed twice a day, and the survival status of rats in each group will be recorded. The mean survival days were calculated for each group and compared to the survival differences of the three groups of rats at the end of the experiment. The radioprotective effects of NAC and TOVA treatment on the survival of those irradiated rats were then evaluated, as shown in the following tables.

[1] = Table 15, XRT 9 Gy, post-treated
[2] = Table 15, XRT 9 Gy, pre-treated
[3] = Table 15, compound only, no XRT
[4] = Table 16, XRT 9 Gy, post-treated
[5] = Table 16, XRT 9 Gy, pre-treated
[6] = Table 16, compound only, no XRT
[7] = XRT 9 Gy, post-treated, 500 mg/kg daily, n = 6, 2nd time
[8] = XRT 9 Gy, pre-treated, 500 mg/kg daily, n = 6, 1st time
[9] = XRT 9 Gy, pre-treated, 500 mg/kg daily, n = 6, 2nd time
[10] = compound only, no XRT, 500 mg/kg daily 5 days, 2nd time

Compound	percentage survival rate [1]	percentage survival rate [2]	percentage survival rate [3]	percentage survival rate [4]	percentage survival rate [5]	percentage survival rate [6]	# of animals dead [7]	# of animals survived [7]	# of animals dead [8]	# of animals survived [8]	# of animals dead [9]	# of animals survived [9]	# of animals dead [10]	# of animals survived [10]	survival rate versus XRT alone
CC(=O)N[C@@H](CS)C(=O)O [NAC, N-acetylcysteine]	33.3%	83.3%	100%	33.3%	83.3%	100%	4	2	1	5	1	5	0	2	higher survival rate
N-acetylcysteine amide [NAC amide]	66.7%	100%	100%	66.7%	100%	100%	2	4	0	6	0	6	0	3	higher survival rate
